From PubChem BioAssay AID330 (DTP/NCI, 2004)
Where “and” joins values, the source holds several entries; their conditions need not be identical. Equal values may be shown once. Inconclusive results and toxic doses are left out. Numbered stars: 1 amine (or outer) side, 2 acyl side, 3 side chain; on linkers, the order of the positions; unused ones are H or OH. Square brackets hold non-standard residues; d marks the D form. Peptide text beside a SMILES is read from it. X21 = O=C(C1=CN(Cc2ccccc2)C=CC1N[*:1])[*:2]

Test system: P388 leukemia ip, CD2F1 mice, survival T/C
Assay: NCI In Vivo Anticancer Drug Screen. Data for tumor model P388 Leukemia (intraperitoneal) in CD2F1 (CDF1) mice
Conditions: endpoint: median survival time, higher = longer survival
Outline: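 Mice carrying the transplanted tumor received test compound or vehicle. Survival was recorded in each group, and the value is the treated-group measurement divided by that of the vehicle-treated control group.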

[1] = dose: 240.0 mg/kg/injection, schedule: Q01DX005 (ip), vehicle: Klucel + Tween-80
[2] = dose: 50.0 mg/kg/injection, schedule: Q01DX009 (ip), vehicle: saline with Tween-80
[3] = dose: 100.0 mg/kg/injection, schedule: Q01DX009 (ip), vehicle: saline with Tween-80
[4] = dose: 200.0 mg/kg/injection, schedule: Q01DX009 (ip), vehicle: saline with Tween-80
[5] = dose: 6.25 mg/kg/injection, schedule: Q01DX009 (ip), vehicle: saline
[6] = dose: 12.5 mg/kg/injection, schedule: Q01DX009 (ip), vehicle: saline
[7] = dose: 25.0 mg/kg/injection, schedule: Q01DX009 (ip), vehicle: saline
[8] = dose: 50.0 mg/kg/injection, schedule: Q01DX009 (ip), vehicle: saline
[9] = dose: 100.0 mg/kg/injection, schedule: Q01DX001 (ip), vehicle: Klucel (hydroxypropylcellulose) (HPC)
[10] = dose: 200.0 mg/kg/injection, schedule: Q01DX001 (ip), vehicle: Klucel (hydroxypropylcellulose) (HPC)
[11] = dose: 400.0 mg/kg/injection, schedule: Q01DX001 (ip), vehicle: Klucel (hydroxypropylcellulose) (HPC)
[12] = dose: 50.0 mg/kg/injection, schedule: Q01DX005 (ip), vehicle: saline
[13] = dose: 100.0 mg/kg/injection, schedule: Q01DX005 (ip), vehicle: saline
[14] = dose: 200.0 mg/kg/injection, schedule: Q01DX005 (ip), vehicle: saline
[15] = dose: 60.0 mg/kg/injection, schedule: Q01DX005 (ip), vehicle: saline with Tween-80
[16] = dose: 120.0 mg/kg/injection, schedule: Q01DX005 (ip), vehicle: saline with Tween-80
[17] = dose: 240.0 mg/kg/injection, schedule: Q01DX005 (ip), vehicle: saline with Tween-80
[18] = dose: 60.0 mg/kg/injection, schedule: Q01DX005 (ip), vehicle: Klucel + Tween-80
[19] = dose: 120.0 mg/kg/injection, schedule: Q01DX005 (ip), vehicle: Klucel + Tween-80
[20] = dose: 25.0 mg/kg/injection, schedule: Q01DX009 (ip), vehicle: saline with Tween-80

`CN(C)c1ccc(C(c2c(O)c3ccccc3oc2=O)c2c(O)c3ccccc3oc2=O)cc1` was tested, and the T/C (dose: 3.75 mg/kg/injection, schedule: Q01DX005 (ip), vehicle: saline with Tween-80) was 99 % of control, the T/C (dose: 7.5 mg/kg/injection, schedule: Q01DX005 (ip), vehicle: saline with Tween-80) was 91 % of control and the T/C (dose: 15.0 mg/kg/injection, schedule: Q01DX005 (ip), vehicle: saline with Tween-80) was 88 % of control and 98 % of control.
With `COC(=O)C([NH-])c1ccccc1.COC(=O)C([NH-])c1ccccc1.[Cl][Pd][Cl]` (stereo not given) the T/C (dose: 100.0 mg/kg/injection, schedule: Q04DX003 (ip), vehicle: saline) was 108 % of control, the T/C (dose: 200.0 mg/kg/injection, schedule: Q04DX003 (ip), vehicle: saline) was 104 % of control and the T/C (dose: 400.0 mg/kg/injection, schedule: Q04DX003 (ip), vehicle: saline) was 103 % of control.
For `CC(C)(C)/C(O)=C/c1nc2ccc(Cl)cc2[nH]c1=O`, the T/C (dose: 7.5 mg/kg/injection, schedule: Q01DX005 (ip), vehicle: Klucel + Tween-80) was 97 % of control, the T/C (dose: 15.0 mg/kg/injection, schedule: Q01DX005 (ip), vehicle: Klucel + Tween-80) was 92 % of control and the T/C (dose: 30.0 mg/kg/injection, schedule: Q01DX005 (ip), vehicle: Klucel + Tween-80) was 88 % of control. For the same molecule, the T/C [1] was 90 % of control.
`CC(C)=CCC/C(C)=C/Cc1ccccc1` was tested, and the T/C [2] was 101 % of control and 109 % of control, the T/C [3] was 103 % of control and 110 % of control and the T/C [4] was 109 % of control.
`CCOC(=O)/C(C#N)=N/O` was tested, and the T/C [5] was 104 % of control and 114 % of control and 90 % of control, the T/C [6] was 102 % of control and 104 % of control and 95 % of control and the T/C [7] was 111 % of control and 97 % of control. The T/C [8] was 101 % of control and 104 % of control and 107 % of control.
`O=C1Cc2ccccc2N1C(=O)c1ccc(F)cc1` was tested, and the T/C [9] was 102 % of control, the T/C [10] was 92 % of control and the T/C [11] was 95 % of control.
`COP(=O)(CC(=O)CCCCCOC1CCCCO1)OC` (stereo not given) was tested, and the T/C [12] was 100 % of control, the T/C [13] was 100 % of control and the T/C [14] was 99 % of control.
For `COC(=O)[CH2][Ge]([c]1ccccc1)[c]1ccccc1.COC(=O)[CH2][Ge]([c]1ccccc1)[c]1ccccc1`, the T/C (dose: 15.0 mg/kg/injection, schedule: Q01DX005 (ip), vehicle: Klucel (hydroxypropylcellulose) (HPC)) was 97 % of control, the T/C (dose: 30.0 mg/kg/injection, schedule: Q01DX005 (ip), vehicle: Klucel (hydroxypropylcellulose) (HPC)) was 89 % of control and the T/C (dose: 60.0 mg/kg/injection, schedule: Q01DX005 (ip), vehicle: Klucel (hydroxypropylcellulose) (HPC)) was 89 % of control.
For `COc1cc(C2C(C(C)=O)=C(C)Oc3cc4c(cc32)OCO4)cc(OC)c1OC` (stereo not given), the T/C (dose: 30.0 mg/kg/injection, schedule: Q01DX005 (ip), vehicle: saline with Tween-80) was 89 % of control, the T/C [15] was 87 % of control and 89 % of control and the T/C [16] was 90 % of control. For the same molecule, the T/C [17] was 87 % of control.
In the case of `COc1ccc(N=c2nc3n4c(c(Cl)cc(Cl)c4n2)NC(C(Cl)(Cl)Cl)=N3)cc1`, the T/C [18] is reported as 93 % of control, the T/C [19] is reported as 92 % of control and the T/C [1] is reported as 96 % of control.
For `Cc1ccc2nc(-c3cccc(Cl)c3)oc(=O)c2c1`, the T/C (dose: 50.0 mg/kg/injection, schedule: Q01DX009 (ip), vehicle: Klucel (hydroxypropylcellulose) (HPC)) was 110 % of control, the T/C (dose: 100.0 mg/kg/injection, schedule: Q01DX009 (ip), vehicle: Klucel (hydroxypropylcellulose) (HPC)) was 102 % of control and the T/C (dose: 200.0 mg/kg/injection, schedule: Q01DX009 (ip), vehicle: Klucel (hydroxypropylcellulose) (HPC)) was 92 % of control.
For `Cc1nn(-c2ccccc2)nc1C(=O)Nc1ccc2[nH]ncc2c1`, the T/C [15] was 91 % of control, the T/C [16] was 94 % of control and the T/C [17] was 86 % of control.
With `Cn1nc(-c2ccc(S(=O)(=O)F)cc2)s/c1=N/NC(=O)c1ccccc1` the T/C [18] was 87 % of control and the T/C [19] was 92 % of control.
With `CC1NC(=O)C(C(C)C)NC(=O)C2=CN(Cc3ccccc3)C=CC2NC(=O)C(C)NC(=O)C(C(C)C)NC(=O)C2=CN(Cc3ccccc3)C=CC2NC1=O` (stereo not given) (cyclo([X21]VA[X21]VA); configuration not given here) the T/C [15] was 94 % of control and the T/C [16] was 93 % of control.
For `CCN(CC)CCN1C(=O)[C@H]2CC=CC[C@H]2C1=O`, the T/C [12] was 99 % of control, the T/C [13] was 105 % of control and the T/C [14] was 97 % of control.
`S=c1nc(-c2ccccc2)[nH]c(=S)[nH]1` was tested, and the T/C [9] was 99 % of control, the T/C [10] was 106 % of control and the T/C [11] was 92 % of control.
With `O=c1[nH]c(=O)c2ncn(C3OC(CO)C(O)C3O)c2[nH]1.O=c1[nH]c(=O)c2ncn(C3OC(CO)C(O)C3O)c2[nH]1.[NH2-].[NH2-].[Pt+2]` (stereo not given) the T/C [5] was 105 % of control, the T/C [6] was 110 % of control and 102 % of control and the T/C [7] was 92 % of control and 107 % of control. The T/C [8] was 100 % of control and 107 % of control, the T/C (dose: 50.0 mg/kg/injection, schedule: Q04DX003 (ip), vehicle: suspension in saline) was 105 % of control and the T/C (dose: 100.0 mg/kg/injection, schedule: Q01DX009 (ip), vehicle: saline) was 96 % of control and 116 % of control. For the same molecule, the T/C (dose: 100.0 mg/kg/injection, schedule: Q04DX003 (ip), vehicle: suspension in saline) was 110 % of control, the T/C (dose: 200.0 mg/kg/injection, schedule: Q04DX003 (ip), vehicle: suspension in saline) was 120 % of control and the T/C (dose: 400.0 mg/kg/injection, schedule: Q04DX003 (ip), vehicle: water) was 174 % of control.
For `CC(=O)OC1CC(O)C23COC(O)C1(C)C2CC(O)C1(C)C3C(=O)C(O)C2(C)C(c3ccoc3)CC3OC321` (stereo not given), the T/C (dose: 0.13 mg/kg/injection, schedule: Q01DX009 (ip), vehicle: saline + alcohol) was 91 % of control, the T/C (dose: 0.25 mg/kg/injection, schedule: Q01DX009 (ip), vehicle: saline + alcohol) was 93 % of control and the T/C (dose: 0.5 mg/kg/injection, schedule: Q01DX009 (ip), vehicle: saline + alcohol) was 90 % of control. For the same molecule, the T/C (dose: 1.0 mg/kg/injection, schedule: Q01DX009 (ip), vehicle: saline + alcohol) was 94 % of control, the T/C (dose: 1.25 mg/kg/injection, schedule: Q01DX009 (ip), vehicle: Klucel (hydroxypropylcellulose) (HPC)) was 104 % of control and the T/C (dose: 2.5 mg/kg/injection, schedule: Q01DX009 (ip), vehicle: Klucel (hydroxypropylcellulose) (HPC)) was 95 % of control.
For `COc1cccc2c1C(=O)c1c(O)c3c(c(O)c1C2=O)CC(O)(C(=O)CO)CC3OC1CC(NC(=O)C(F)(F)F)C(OC2CC(N)C(O)C(C)O2)C(C)O1` (stereo not given), the T/C (dose: 3.13 mg/kg/injection, schedule: Q04DX003 (ip), vehicle: water) was 109 % of control, the T/C (dose: 12.5 mg/kg/injection, schedule: Q04DX003 (ip), vehicle: water) was 119 % of control and the T/C (dose: 25.0 mg/kg/injection, schedule: Q04DX003 (ip), vehicle: water) was 113 % of control. For the same molecule, the T/C (dose: 50.0 mg/kg/injection, schedule: Q04DX003 (ip), vehicle: water) was 117 % of control.
With `O=C1OC(=Nc2cccc([N+](=O)[O-])c2)c2ccccc21` the T/C [20] was 99 % of control and 103 % of control, the T/C [2] was 100 % of control and 95 % of control and the T/C [3] was 99 % of control and 95 % of control. The T/C [4] was 88 % of control and 95 % of control.
For `CCCCOC(=O)[C@@H]1O[C@H]2OC=C[C@H]21`, the T/C (dose: 6.25 mg/kg/injection, schedule: Q01DX005 (ip), vehicle: saline with Tween-80) was 100 % of control and the T/C (dose: 12.5 mg/kg/injection, schedule: Q01DX005 (ip), vehicle: saline with Tween-80) was 106 % of control.
For `O=C1c2cc(O)c(O)cc2O[C@H](c2ccc(O)c(O)c2)[C@H]1O`, the T/C [3] was 120 % of control, the T/C (dose: 100.0 mg/kg/injection, schedule: Q04DX003 (ip), vehicle: saline with Tween-80) was 100 % of control and the T/C [4] was 110 % of control. For the same molecule, the T/C (dose: 200.0 mg/kg/injection, schedule: Q04DX003 (ip), vehicle: saline with Tween-80) was 100 % of control, the T/C (dose: 400.0 mg/kg/injection, schedule: Q01DX009 (ip), vehicle: saline with Tween-80) was 120 % of control and the T/C (dose: 400.0 mg/kg/injection, schedule: Q04DX003 (ip), vehicle: saline with Tween-80) was 109 % of control.
With `CCCCCCc1c(C#N)c(S)[nH]c(=S)c1C#N` the T/C [6] was 95 % of control, the T/C [7] was 106 % of control and the T/C [8] was 106 % of control and 96 % of control.
In the case of `O=C(COc1ccc(Cl)cc1Cl)Nc1ccccc1C(=O)c1ccccc1`, the T/C [2] is reported as 101 % of control, the T/C [3] is reported as 101 % of control and the T/C [4] is reported as 94 % of control.
In the case of `[Cu+2].[O-]c1ccc(Br)c2cccnc12.[O-]c1ccc(Br)c2cccnc12`, the T/C (dose: 12.5 mg/kg/injection, schedule: Q01DX009 (ip), vehicle: saline with Tween-80) is reported as 104 % of control, the T/C [20] is reported as 100 % of control and the T/C (dose: 33.0 mg/kg/injection, schedule: Q04DX003 (ip), vehicle: saline with Tween-80) is reported as 90 % of control. For the same molecule, the T/C [2] was 104 % of control.
